We go through 2 molecules from patent publication US7022846B2, “Metabolites of prinomastat and their synthesis” (Agouron Pharmaceuticals, Inc., priority 2002, dated 2006).

Structures are written as SMILES. pKi: −log10 of the molar value. Some results are limits rather than exact numbers.

One series concerns the target hCOL3 (Homo sapiens, UniProt P45452). The series is described as follows: Ki for MMP inhibition, hCOL3. The series is classed as biochemical. An excerpt:
(§1) The present invention is further directed to methods of inhibiting metalloproteinase activity, for example in mammalian tissue, by administering metabolites of prinomastat, such as a compound of the formula 11 or 22, or a pharmaceutically acceptable prodrug, salt or solvate thereof. The activity of the inventive compounds as inhibitors of metalloproteinase activity, such as the activity of MMPs (including stromelysins, collagenases, gelatinases, and/or matrilysin) and/or TNF-[…] convertase, may be measured by any of the methods available to those skilled in the art, including in vivo and/or in vitro assays. Examples of suitable assays fro activity measurements include those described in Anal. Biochem., 147, 437 (1995), Anal. Biochem., 180, 110 (1989), FEBS, 96, 263 (1992) and European Patent Application No. 0 606 046.

In another series the target is T1, hGELA (Homo sapiens, UniProt P08253).
T1 sequence (P08253 110-660): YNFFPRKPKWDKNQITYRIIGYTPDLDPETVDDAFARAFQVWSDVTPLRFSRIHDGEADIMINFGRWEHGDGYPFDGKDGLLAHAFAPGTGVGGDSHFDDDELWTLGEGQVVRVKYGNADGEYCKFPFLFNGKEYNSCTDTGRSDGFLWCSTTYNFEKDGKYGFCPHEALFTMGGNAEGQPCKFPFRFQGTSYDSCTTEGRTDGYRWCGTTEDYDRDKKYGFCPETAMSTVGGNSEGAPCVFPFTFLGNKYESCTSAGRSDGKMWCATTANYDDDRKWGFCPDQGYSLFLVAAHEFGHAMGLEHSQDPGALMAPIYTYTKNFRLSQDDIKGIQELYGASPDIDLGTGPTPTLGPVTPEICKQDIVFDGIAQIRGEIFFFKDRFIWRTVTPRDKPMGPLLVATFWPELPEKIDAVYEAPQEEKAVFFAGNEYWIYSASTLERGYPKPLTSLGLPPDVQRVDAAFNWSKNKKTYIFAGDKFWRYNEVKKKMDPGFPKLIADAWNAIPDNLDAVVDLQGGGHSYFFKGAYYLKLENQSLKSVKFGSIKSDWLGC
The series is described as follows: Ki for MMP inhibition, hGELA. The series is classed as biochemical.
Source text: as §1

The next series concerns the target T2, hCOL1 (Homo sapiens, UniProt P03956).
T2 sequence (P03956 100-469): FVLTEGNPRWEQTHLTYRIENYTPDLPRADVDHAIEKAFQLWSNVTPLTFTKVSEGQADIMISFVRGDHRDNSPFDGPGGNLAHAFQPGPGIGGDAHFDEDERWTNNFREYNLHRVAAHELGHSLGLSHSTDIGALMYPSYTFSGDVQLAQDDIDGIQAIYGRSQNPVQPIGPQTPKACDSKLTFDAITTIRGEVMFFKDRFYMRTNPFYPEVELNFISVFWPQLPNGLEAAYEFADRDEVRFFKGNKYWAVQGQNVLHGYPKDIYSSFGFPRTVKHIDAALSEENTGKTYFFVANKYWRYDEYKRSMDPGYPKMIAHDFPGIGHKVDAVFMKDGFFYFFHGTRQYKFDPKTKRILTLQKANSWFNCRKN
The series is described as follows: Ki for MMP inhibition, hCOL1. The series is classed as biochemical.
Source text: as §1

A further series has as its target T3, hMATR (Homo sapiens, UniProt P09237).
T3 sequence (P09237 95-267): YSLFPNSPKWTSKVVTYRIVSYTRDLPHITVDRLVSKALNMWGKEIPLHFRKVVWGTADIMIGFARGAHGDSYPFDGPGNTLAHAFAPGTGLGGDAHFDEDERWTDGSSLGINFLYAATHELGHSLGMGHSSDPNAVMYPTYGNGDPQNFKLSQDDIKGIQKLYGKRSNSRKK
The series is described as follows: Ki for MMP inhibition, hMATR. In kind it is biochemical.
Source text: as §1

For another series, the target named is hSLN (Homo sapiens, UniProt P08254). The series is described as follows: Ki for MMP inhibition, hSLN. The series is classed as biochemical.
hSLN, sequence (P08254 100-477): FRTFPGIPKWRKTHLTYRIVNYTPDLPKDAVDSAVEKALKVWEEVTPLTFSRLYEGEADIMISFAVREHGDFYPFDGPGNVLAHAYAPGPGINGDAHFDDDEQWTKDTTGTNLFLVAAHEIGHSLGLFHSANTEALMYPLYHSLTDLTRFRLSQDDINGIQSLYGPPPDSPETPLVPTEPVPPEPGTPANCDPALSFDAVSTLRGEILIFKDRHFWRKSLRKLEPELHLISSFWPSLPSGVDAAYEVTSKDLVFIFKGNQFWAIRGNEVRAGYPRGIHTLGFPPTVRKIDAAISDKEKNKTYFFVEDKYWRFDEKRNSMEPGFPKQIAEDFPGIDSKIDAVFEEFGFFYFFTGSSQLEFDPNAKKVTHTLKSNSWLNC
Source text: as §1

Series [1] can be described thus: Metabolic composition of human plasma after single oral dose of prinomastat (LC-MS/MS). The series is classed as in vivo. The note with it: single 100 mg oral dose of prinomastat. The procedure:
Five healthy male volunteers received a 100 mg oral dose of prinomastat tablets in a phase I, double-blind, ascending single dose study. Blood samples were drawn at pre-selected time points, and the plasma was separated by centrifugation and stored at −20° C.
The human plasma samples at 1.5, 4, 8 and 12 hours pooled from five male volunteers were selected for the analysis of metabolites by liquid chromatography tandem mass spectroscopy (LC-MS/MS). Samples were treated with three volumes of an AcN:MeOH mixture (2:1) to precipitate plasma proteins. Following centrifugation, protein pellets were separated and washed twice with two volumes of the same AcN:MeOH mixture. The combined supernatant was evaporated to dryness under vacuum using a SpeedVac™ (Savant Instrument, Holbrook, N.Y.), and the dried residue was reconstituted in 0.1% formic acid-acetonitrile (90:10), and analyzed by LC-MS/MS.
Two LC-MS/MS systems were used to analyze the plasma samples. […]
The relative peak heights of prinomastat and its metabolites in the LC-MS reconstructed ion chromatograms (RIC) were used to estimate the relative abundance of each component, which was expressed as percent of total prinomastat related compounds. […]
Human plasma pooled from five male volunteers was analyzed for metabolites at 1.5 hr, 4, 8 and 12 hours. […]

As a reminder, the pKi is the negative decadic logarithm of the Ki, by convention in mol/L. Low readings indicate a large Ki, high ones a small Ki. On to `CC1(C)SCCN(S(=O)(=O)c2ccc(Oc3cc[n+]([O-])cc3)cc2)[C@H]1C(=O)NO` [M6, (3S)-N-hydroxy-4-(4-((1-oxy-pyrid-4-yl)oxy)benzenesulfonyl)-2,2-dimethyl-tetrahydro-2H-1,4-thiazine-3-carboxamide], for which the pKi at hCOL3 is 8.40; on hGELA it was 8.18; at hCOL1 it was 6.40; at hMATR, 5.94; at hSLN, 8.29. Moreover, the “share of the total drug-related substance in human plasma” value in series [1] (later time points) was no more than 50%.

Regarding `CC1(C)SCCN(S(=O)(=O)c2ccc(Oc3ccncc3)cc2)[C@H]1C(=O)NO` [parent drug, (3S)-N-hydroxy-4-(4-(pyrid-4-yloxy)benzenesulfonyl)-2,2-dimethyl-tetrahydro-2H-1,4-thiazine-3-carboxamide, reference compound], in series [1] (early time points), the “relative abundance among circulating drug-related compounds in human plasma” value is reported as “major circulating compound”.
